Results from patent EP3436445B1, “HISTONE DEMETHYLASE INHIBITORS” (Celgene Quanticel Research, Inc., priority 2016, dated 2017).

Each molecule was assayed against T1, JMJD2C (Homo sapiens, UniProt Q9H3R0) (assay: JMJD2C in vitro enzyme inhibition assay (TR-FRET)). Details: Table 5; 0.3 nM JMJD2C, H3K9me3-biotin labeled peptide.
T1 construct: purchased BPS Bioscience 50105
T1 sequence (Q9H3R0 2-372): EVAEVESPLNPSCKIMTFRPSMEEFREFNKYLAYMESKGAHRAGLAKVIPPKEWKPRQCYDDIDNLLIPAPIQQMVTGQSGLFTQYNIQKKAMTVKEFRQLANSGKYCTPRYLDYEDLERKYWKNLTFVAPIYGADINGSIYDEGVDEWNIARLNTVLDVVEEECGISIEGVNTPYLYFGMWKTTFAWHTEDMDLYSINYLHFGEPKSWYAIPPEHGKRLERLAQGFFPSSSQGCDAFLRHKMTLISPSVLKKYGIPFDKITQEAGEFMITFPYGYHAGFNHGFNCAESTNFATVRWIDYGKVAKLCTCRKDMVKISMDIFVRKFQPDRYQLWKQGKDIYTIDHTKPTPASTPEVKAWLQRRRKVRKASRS
Assay type: biochemical
Excerpt: This assay determines the ability of a test compound to inhibit Jarid1B, JMJD2C and JMJD3 demethylase activity. Baculovirus expressed Jarid1B (GenBank Accession #NM-006618, AA 2-751) was purchased from BPS Bioscience (Cat #50121) or custom made by MolecularThroughput. Baculovirus expressed JMJD2C (GenBank Accession #BC143571, AA 2-372) was purchased from BPS Bioscience (Cat#50105). Baculovirus expressed JMJD3 (GenBank Accession #NM-001080424, AA1043-end) was purchased from BPS Bioscience (Cat#50115).
The ability of test compounds to inhibit the activity of JMJD2C was determined in 384-well plate format under the following reaction conditions: 0.3 nM JMJD2C, 300 nM H3K9me3-biotin labeled peptide (Anaspec cat #64360), 2 µM alpha-ketoglutaric acid in assay buffer of 50 mM HEPES, pH7.3, 0.005% Brij35, 0.5 mM TCEP, 0.2 mg/ml BSA, 50 µM sodium L-ascorbate, and 2 µM ammonium iron(II) sulfate. Reaction product was determined quantitatively by TR-FRET after the addition of detection reagent Phycolink Streptavidin-allophycocyanin (Prozyme) and Europium-anti-di-methylated histone H3 lysine 9 (H3K9me2) antibody (PerkinElmer) in the presence of 5 mM EDTA in LANCE detection buffer (PerkinElmer) at a final concentration of 50 nM and 1 nM, respectively.
The assay reaction was initiated by the following: 2 µl of the mixture of 900 nM H3K9me3-biotin labeled peptide and 6 µM alpha-ketoglutaric acid with 2 µl of 11-point serial diluted inhibitor in 3% DMSO were added to each well of the plate, followed by the addition of 2 µl of 0.9 nM JMJD2C to initiate the reaction. The reaction mixture was incubated at room temperature for 30 minutes, and terminated by the addition of 6 µl of 5 mM EDTA in LANCE detection buffer containing 100 nM Phycolink Streptavidin-allophycocyanin and 2 nM Europium-anti-H3K9me2 antibody. Plates were read by EnVisionMultilabel Reader in TR-FRET mode (excitation at 320 nm, emission at 615 nm and 665 nm) after 1 hour incubation at room temperature. A ratio was calculated (665/615) for each well and fitted to determine inhibition constant (IC50).

Row | SMILES | IC50 [µM]
1 | Fc1ccc(Cn2cnc(-c3cc(-c4nn[nH]c4C(F)(F)F)ccn3)c2)c(F)c1 [Example 68, 2-{1-[(2,4-difluorophenyl)methyl]-1H-imidazol-4-yl}-4-[5-(trifluoromethyl)-1H-1,2,3-triazol-4-yl]pyridine] | > 10
2 | COc1ccc(Cn2cnc(-c3cc(-c4nn[nH]c4C(F)(F)F)ccn3)c2)cc1 [Example 67, 2-{1-[(4-methoxyphenyl)methyl]-1H-imidazol-4-yl}-4-[5-(trifluoromethyl)-1H-1,2,3-triazol-4-yl]pyridine] | 1 to 10
3 | Fc1cccc(CCn2cnc(-c3cc(-c4nn[nH]c4C(F)(F)F)ccn3)c2)c1F [Example 79, 2-{1-[2-(2,3-difluorophenyl)ethyl]-1H-imidazol-4-yl}-4-[5-(trifluoromethyl)-1H-1,2,3-triazol-4-yl]pyridine] | > 10
4 | Cc1ccccc1Cn1cnc(-c2cc(-c3nn[nH]c3C(F)(F)F)ccn2)c1 [Example 66, 2-{1-[(2-methylphenyl)methyl]-1H-imidazol-4-yl}-4-[5-(trifluoromethyl)-1H-1,2,3-triazol-4-yl]pyridine] | > 10
5 | FC(F)(F)COc1ccccc1Cn1cnc(-c2cc(-c3nn[nH]c3C(F)(F)F)ccn2)c1 [Example 76, 2-(1-{[2-(2,2,2-trifluoroethoxy)phenyl]methyl}-1H-imidazol-4-yl)-4-[5-(trifluoromethyl)-1H-1,2,3-triazol-4-yl]pyridine] | > 10
6 | FC(F)(F)c1[nH]nnc1-c1ccnc(-c2cn(Cc3ccc(Cl)cc3)cn2)c1 [Example 63, 2-{1-[(4-chlorophenyl)methyl]-1H-imidazol-4-yl}-4-[5-(trifluoromethyl)-1H-1,2,3-triazol-4-yl]pyridine] | > 10
7 | CCOc1ccccc1CCn1cnc(-c2cc(-c3nn[nH]c3C(F)(F)F)ccn2)c1 [Example 59] | > 10
8 | Cc1ccc(Cn2cnc(-c3cc(-c4nn[nH]c4C(F)(F)F)ccn3)c2)cc1 [Example 65, 2-{1-[(4-methylphenyl)methyl]-1H-imidazol-4-yl}-4-[5-(trifluoromethyl)-1H-1,2,3-triazol-4-yl]pyridine] | > 10
9 | FC(F)(F)c1[nH]nnc1-c1ccnc(-c2cn(Cc3ccccc3)cn2)c1 [Example 72, 2-(1-benzyl-1H-imidazol-4-yl)-4-[5-(trifluoromethyl)-1H-1,2,3-triazol-4-yl]pyridine] | > 10
10 | FC(F)(F)c1[nH]nnc1-c1ccnc(-c2cn(CCc3ccccc3Cl)cn2)c1 [Example 57] | > 10
11 | CCC(c1ccccc1)n1cnc(-c2cc(-c3nn[nH]c3C(F)(F)F)ccn2)c1 (centres unmarked) [Example 74, 2-[1-(1-phenylpropyl)-1H-imidazol-4-yl]-4-[5-(trifluoromethyl)-1H-1,2,3-triazol-4-yl]pyridine] | > 10
12 | CC(C)C(c1ccccc1)n1cnc(-c2cc(-c3nn[nH]c3C(F)(F)F)ccn2)c1 (centres unmarked) [Example 75, 2-[1-(2-methyl-1-phenylpropyl)-1H-imidazol-4-yl]-4-[5-(trifluoromethyl)-1H-1,2,3-triazol-4-yl]pyridine] | > 10
13 | FC(F)(F)c1[nH]nnc1-c1ccnc(-c2cn(CC3CCCc4ccccc43)cn2)c1 (centres unmarked) [Example 58, 2-{1-[(1,2,3,4-tetrahydronaphthalen-1-yl)methyl]-1H-imidazol-4-yl}-4-[5-(trifluoromethyl)-1H-1,2,3-triazol-4-yl]pyridine] | > 10
14 | Fc1ccc(CCn2cnc(-c3cc(-c4nn[nH]c4C(F)(F)F)ccn3)c2)cc1 [Example 77] | > 10

The next lines start with the values.

Row | IC50 [µM] | SMILES
15 | > 10 | FC(F)(F)c1[nH]nnc1-c1ccnc(-c2cn(CCc3ccc(Cl)cc3)cn2)c1 [Example 92, 2-{1-[2-(4-chlorophenyl)ethyl]-1H-imidazol-4-yl}-4-[5-(trifluoromethyl)-1H-1,2,3-triazol-4-yl]pyridine]
16 | > 10 | Fc1ccc2c(c1)CCCC2Cn1cnc(-c2cc(-c3nn[nH]c3C(F)(F)F)ccn2)c1 (centres unmarked) [Example 100, 2-{1-[(6-fluoro-1,2,3,4-tetrahydronaphthalen-1-yl)methyl]-1H-imidazol-4-yl}-4-[5-(trifluoromethyl)-1H-1,2,3-triazol-4-yl]pyridine]
17 | 1 to 10 | Fc1ccc2c(c1)C(n1cnc(-c3cc(-c4nn[nH]c4C(F)(F)F)ccn3)c1)CC2 (centres unmarked) [Example 85, 2-[1-(6-fluoro-2,3-dihydro-1H-inden-1-yl)-1H-imidazol-4-yl]-4-[5-(trifluoromethyl)-1H-1,2,3-triazol-4-yl]pyridine]
18 | > 10 | COc1ccc2c(c1)C(Cn1cnc(-c3cc(-c4nn[nH]c4C(F)(F)F)ccn3)c1)CCC2 (centres unmarked) [Example 106, 2-{1-[(7-methoxy-1,2,3,4-tetrahydronaphthalen-1-yl)methyl]-1H-imidazol-4-yl}-4-[5-(trifluoromethyl)-1H-1,2,3-triazol-4-yl]pyridine]
19 | > 10 | Fc1cccc(F)c1CCn1cnc(-c2cc(-c3nn[nH]c3C(F)(F)F)ccn2)c1 [Example 87, 2-{1-[2-(2,6-difluorophenyl)ethyl]-1H-imidazol-4-yl}-4-[5-(trifluoromethyl)-1H-1,2,3-triazol-4-yl]pyridine]
20 | > 10 | Fc1cc(F)c(CCn2cnc(-c3cc(-c4nn[nH]c4C(F)(F)F)ccn3)c2)cc1F [Example 81, 4-[5-(trifluoromethyl)-1H-1,2,3-triazol-4-yl]-2-{1-[2-(2,4,5-trifluorophenyl)ethyl]-1H-imidazol-4-yl}pyridine]
21 | > 10 | Fc1cccc(Cl)c1CCn1cnc(-c2cc(-c3nn[nH]c3C(F)(F)F)ccn2)c1 [Example 80, 2-{1-[2-(2-chloro-6-fluorophenyl)ethyl]-1H-imidazol-4-yl}-4-[5-(trifluoromethyl)-1H-1,2,3-triazol-4-yl]pyridine]
22 | > 10 | FC(F)(F)c1[nH]nnc1-c1ccnc(-c2cn(CC3CCOc4ccccc43)cn2)c1 (centres unmarked) [Example 98, 2-{1-[(3,4-dihydro-2H-1-benzopyran-4-yl)methyl]-1H-imidazol-4-yl}-4-[5-(trifluoromethyl)-1H-1,2,3-triazol-4-yl]pyridine]
23 | > 10 | Cc1ccc2c(c1)CCCC2Cn1cnc(-c2cc(-c3nn[nH]c3C(F)(F)F)ccn2)c1 (centres unmarked) [Example 102, 2-{1-[(6-methyl-1,2,3,4-tetrahydronaphthalen-1-yl)methyl]-1H-imidazol-4-yl}-4-[5-(trifluoromethyl)-1H-1,2,3-triazol-4-yl]pyridine]
24 | > 10 | Cn1cnc(-c2cc(-c3nn[nH]c3C(F)(F)F)ccn2)c1-c1ccc(F)cc1 [Example 97, 2-[5-(4-fluorophenyl)-1-methyl-1H-imidazol-4-yl]-4-[5-(trifluoromethyl)-1H-1,2,3-triazol-4-yl]pyridine]
25 | > 10 | COc1ccc2c(c1)CCCC2Cn1cnc(-c2cc(-c3nn[nH]c3C(F)(F)F)ccn2)c1 (centres unmarked) [Example 105, 2-{1-[(6-methoxy-1,2,3,4-tetrahydronaphthalen-1-yl)methyl]-1H-imidazol-4-yl}-4-[5-(trifluoromethyl)-1H-1,2,3-triazol-4-yl]pyridine]
26 | > 10 | Fc1cc(F)c(CCn2cnc(-c3cc(-c4nn[nH]c4C(F)(F)F)ccn3)c2)c(F)c1 [Example 82, 4-[5-(trifluoromethyl)-1H-1,2,3-triazol-4-yl]-2-{1-[2-(2,4,6-trifluorophenyl)ethyl]-1H-imidazol-4-yl}pyridine]
